From US10351565B2, “Therapeutic compounds for pain and synthesis thereof” (priority 2015, dated 2019)
Where “and” joins values, the source holds several entries; their conditions need not be identical. Equal entries are not always repeated.

How the values were obtained:
neuropathic pain in mice [1] = assay: Taxol mouse model of neuropathic pain, repeated daily administration; assay type: in vivo
Excerpt: (§1) Table 7 summarizes the activity of Formula 1 in mice models of neuropathic pain following repeated daily administration using different routes of administration.

neuropathic pain in mice [2] = assay: CCI mouse model of neuropathic pain, repeated daily administration; assay type: in vivo; conditions: for Dose of maximum activity: doses tested 150 mg/kg
Excerpt: as §1

[3] = PO, 30 mg/kg, repeated daily administration
[4] = SC, doses tested 1, 3, 10 mg/kg, repeated daily administration
[5] = SC, 150 mg/kg, repeated daily administration

COc1ccc2cc(CN3[C@@H]4C[C@@H]5C[C@H]3[C@H](OC(=O)C(C)(C)C)C4N(C(=O)CC(F)(F)F)C5)ccc2c1 (stereo partly drawn) [Formula 1, (2S,3S,6R,7aR)-1-((6-methoxynaphthalen-2-yl)methyl)-4-(3,3,3-trifluoropropanoyl)octahydro-1H-2,6-methanopyrrolo[3,2-b]pyridin-3-yl pivalate]
Duration of activity at maximum effect (neuropathic pain in mice [1]; [3]): 24 H
Level of activity (% of maximum effect- baseline) (neuropathic pain in mice [1]; [3]): 100%
Peak of activity (T) (neuropathic pain in mice [1]; [3]): 2-24 H
Dose of maximum activity (neuropathic pain in mice [1]; PO, doses tested 30 mg/kg): <30 mg/kg
Dose of maximum activity (neuropathic pain in mice [1]; SC, doses tested 1, 3, 10 mg/kg): 1 mg/kg
Duration of activity at maximum effect (neuropathic pain in mice [1]; [4]): 24 h
Level of activity (% of maximum effect- baseline) (neuropathic pain in mice [1]; [4]): 100%

NCC1(CC(=O)O)CCCCC1 [Gabapentin]
Dose of maximum activity (neuropathic pain in mice [1]; PO, doses tested 150 mg/kg): 150 mg/kg
Dose of maximum activity (neuropathic pain in mice [1]; SC, doses tested 150 mg/kg): 150 mg/kg
Dose of maximum activity (neuropathic pain in mice [2]; IP): 150 mg/kg
Duration of activity at maximum effect (neuropathic pain in mice [2]; [5]): 4-6 H
Level of activity (% of maximum effect- baseline) (neuropathic pain in mice [2]; [5]): >100% and 64%
Peak of activity (T) (neuropathic pain in mice [2]; [5]): 2-3 H
Dose of maximum activity (neuropathic pain in mice [2]; SC): 150 mg/kg
